In ChEMBL document CHEMBL5465560, “Selectivity Literature for EUbOPEN Chemogenomic Library” (2024):

How the values were obtained:
[1] = target: MAP/microtubule affinity-regulating kinase 3 (Homo sapiens) (UniProt P27448); assay: Selectivity interaction (ProQinase) EUB0000171b MARK3
[2] = target: Cyclin-dependent kinase 5/CDK5 activator 1 (Homo sapiens) (UniProt Q00535+Q15078); assay: Selectivity interaction (Millipore kinase profiler) EUB0000124b CDK5; format: protein-complex assay; conditions: at 10 µM
Cyclin-dependent kinase 5/CDK5 activator 1 (Homo sapiens), sequence (Q00535 whole entry): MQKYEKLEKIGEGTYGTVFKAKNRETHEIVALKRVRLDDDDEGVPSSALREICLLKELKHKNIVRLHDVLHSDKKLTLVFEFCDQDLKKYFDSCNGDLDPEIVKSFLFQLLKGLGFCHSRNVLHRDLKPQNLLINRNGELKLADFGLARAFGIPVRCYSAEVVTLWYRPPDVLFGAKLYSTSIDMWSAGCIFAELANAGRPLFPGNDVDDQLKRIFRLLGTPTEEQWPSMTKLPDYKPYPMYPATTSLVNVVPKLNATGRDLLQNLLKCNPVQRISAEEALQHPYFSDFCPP
Cyclin-dependent kinase 5/CDK5 activator 1 (Homo sapiens), sequence (Q15078 99-307 partner limits assumed): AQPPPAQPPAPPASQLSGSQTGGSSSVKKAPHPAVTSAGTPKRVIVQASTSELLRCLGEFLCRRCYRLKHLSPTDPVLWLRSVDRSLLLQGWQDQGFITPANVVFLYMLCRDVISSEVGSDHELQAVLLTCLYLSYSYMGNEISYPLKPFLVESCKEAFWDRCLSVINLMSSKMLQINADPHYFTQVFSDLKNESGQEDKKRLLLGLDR

[3] = target: T1, Receptor-interacting serine/threonine-protein kinase 4 (Homo sapiens) (UniProt P57078); conditions: at 10 µM
T1 sequence (whole entry): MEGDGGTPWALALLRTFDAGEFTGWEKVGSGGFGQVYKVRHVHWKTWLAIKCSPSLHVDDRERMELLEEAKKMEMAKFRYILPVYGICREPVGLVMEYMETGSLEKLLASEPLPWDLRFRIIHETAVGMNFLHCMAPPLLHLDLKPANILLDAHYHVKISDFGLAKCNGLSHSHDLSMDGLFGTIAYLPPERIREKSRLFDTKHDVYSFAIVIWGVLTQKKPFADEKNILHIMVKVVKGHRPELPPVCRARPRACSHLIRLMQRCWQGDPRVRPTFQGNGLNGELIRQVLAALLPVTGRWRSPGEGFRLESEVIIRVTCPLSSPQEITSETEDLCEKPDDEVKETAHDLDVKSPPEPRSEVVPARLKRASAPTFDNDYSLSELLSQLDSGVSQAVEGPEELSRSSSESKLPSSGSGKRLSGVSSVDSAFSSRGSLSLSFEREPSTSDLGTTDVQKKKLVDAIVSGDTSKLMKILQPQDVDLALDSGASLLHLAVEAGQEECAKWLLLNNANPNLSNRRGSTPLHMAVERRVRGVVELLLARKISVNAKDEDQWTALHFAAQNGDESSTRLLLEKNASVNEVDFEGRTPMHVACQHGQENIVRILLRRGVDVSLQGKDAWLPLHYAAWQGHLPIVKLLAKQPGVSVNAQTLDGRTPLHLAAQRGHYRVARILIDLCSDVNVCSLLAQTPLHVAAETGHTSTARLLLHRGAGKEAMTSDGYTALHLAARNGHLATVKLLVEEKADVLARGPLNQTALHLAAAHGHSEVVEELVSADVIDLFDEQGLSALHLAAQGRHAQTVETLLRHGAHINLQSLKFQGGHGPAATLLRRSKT

[4] = target: Tyrosine-protein kinase ABL2 (Homo sapiens, UniProt P42684); assay: Selectivity interaction (Kinase panel (Invitrogen)) EUB0000639a ABL2; conditions: at 200 nM
[5] = target: T2, Mitogen-activated protein kinase kinase kinase 2 (Homo sapiens) (UniProt Q9Y2U5); assay: Selectivity interaction (KinomeScan (DiscoverX)) EUB0000607a MAP3K2; conditions: at 10 µM
T2 sequence (whole entry): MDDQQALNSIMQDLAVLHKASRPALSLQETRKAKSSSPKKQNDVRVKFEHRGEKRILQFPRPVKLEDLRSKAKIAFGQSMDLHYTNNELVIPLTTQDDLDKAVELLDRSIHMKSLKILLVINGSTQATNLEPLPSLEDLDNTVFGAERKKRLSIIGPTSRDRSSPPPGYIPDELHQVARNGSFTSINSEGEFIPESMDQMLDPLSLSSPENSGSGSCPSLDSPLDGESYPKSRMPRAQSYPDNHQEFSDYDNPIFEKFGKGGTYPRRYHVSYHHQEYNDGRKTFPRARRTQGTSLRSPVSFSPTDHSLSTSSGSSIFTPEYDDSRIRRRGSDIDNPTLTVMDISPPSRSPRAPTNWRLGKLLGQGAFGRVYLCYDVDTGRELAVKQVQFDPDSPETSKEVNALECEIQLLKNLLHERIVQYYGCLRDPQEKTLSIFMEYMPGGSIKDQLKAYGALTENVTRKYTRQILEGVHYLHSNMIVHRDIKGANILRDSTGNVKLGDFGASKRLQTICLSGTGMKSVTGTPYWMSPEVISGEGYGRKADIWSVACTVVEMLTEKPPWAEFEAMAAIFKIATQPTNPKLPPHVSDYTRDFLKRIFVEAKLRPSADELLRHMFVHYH

[6] = target: T3, Eukaryotic elongation factor 2 kinase (Homo sapiens) (UniProt O00418); assay: Selectivity interaction (SelectScreen profiling (Invitrogen)) EUB0000607a EEF2K; conditions: at 2 µM
T3 sequence (whole entry): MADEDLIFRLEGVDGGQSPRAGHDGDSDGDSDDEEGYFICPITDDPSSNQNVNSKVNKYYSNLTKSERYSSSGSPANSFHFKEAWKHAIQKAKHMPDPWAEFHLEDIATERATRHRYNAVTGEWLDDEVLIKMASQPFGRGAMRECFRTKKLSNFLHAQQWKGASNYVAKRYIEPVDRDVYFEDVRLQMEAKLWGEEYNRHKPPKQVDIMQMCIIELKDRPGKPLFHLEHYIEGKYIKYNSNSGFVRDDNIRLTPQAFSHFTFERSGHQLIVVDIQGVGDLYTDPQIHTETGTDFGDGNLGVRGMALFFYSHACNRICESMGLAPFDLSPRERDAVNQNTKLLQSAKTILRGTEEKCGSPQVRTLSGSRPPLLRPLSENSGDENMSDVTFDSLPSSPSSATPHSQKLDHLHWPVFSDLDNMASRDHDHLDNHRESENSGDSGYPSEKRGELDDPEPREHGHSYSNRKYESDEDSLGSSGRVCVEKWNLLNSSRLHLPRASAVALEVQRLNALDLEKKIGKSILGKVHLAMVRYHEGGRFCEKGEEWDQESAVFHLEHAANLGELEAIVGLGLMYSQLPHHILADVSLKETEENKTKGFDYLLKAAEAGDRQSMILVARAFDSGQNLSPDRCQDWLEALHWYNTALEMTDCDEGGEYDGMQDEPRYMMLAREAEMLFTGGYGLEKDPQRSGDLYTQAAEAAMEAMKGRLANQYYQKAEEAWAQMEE

[7] = target: Serine/threonine-protein kinase MARK2 (Homo sapiens) (UniProt Q7KZI7); assay: Selectivity interaction (KinomeScan (DiscoverX)) EUB0001049a MARK2; conditions: at 1 µM
[8] = target: Casein kinase I isoform gamma-2 (Homo sapiens) (UniProt P78368); assay: Selectivity interaction (KinomeScan (DiscoverX)) EUB0000045b CSNK1G2
Casein kinase I isoform gamma-2 (Homo sapiens), sequence (P78368 whole entry, looked up, canonical isoform): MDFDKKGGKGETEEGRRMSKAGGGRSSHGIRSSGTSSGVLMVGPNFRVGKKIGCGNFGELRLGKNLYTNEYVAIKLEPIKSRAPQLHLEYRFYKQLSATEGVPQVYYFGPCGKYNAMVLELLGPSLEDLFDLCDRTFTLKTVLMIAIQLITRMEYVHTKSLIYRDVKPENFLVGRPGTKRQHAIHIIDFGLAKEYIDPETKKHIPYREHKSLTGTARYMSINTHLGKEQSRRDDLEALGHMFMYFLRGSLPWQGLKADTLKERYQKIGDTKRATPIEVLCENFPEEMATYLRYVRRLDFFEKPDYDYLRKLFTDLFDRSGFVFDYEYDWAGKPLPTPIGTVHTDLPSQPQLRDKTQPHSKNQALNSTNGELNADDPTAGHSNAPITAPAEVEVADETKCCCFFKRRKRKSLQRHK

[9] = test system: Mast/stem cell growth factor receptor Kit (Homo sapiens), P10721 [V559D,V654A]; assay: (§1) Selectivity interaction (KinomeScan (DiscoverX)) EUB0000618a KIT; conditions: at 10 µM
Mast/stem cell growth factor receptor Kit (Homo sapiens), P10721 [V559D,V654A], sequence (P10721 whole entry V559D/V654A): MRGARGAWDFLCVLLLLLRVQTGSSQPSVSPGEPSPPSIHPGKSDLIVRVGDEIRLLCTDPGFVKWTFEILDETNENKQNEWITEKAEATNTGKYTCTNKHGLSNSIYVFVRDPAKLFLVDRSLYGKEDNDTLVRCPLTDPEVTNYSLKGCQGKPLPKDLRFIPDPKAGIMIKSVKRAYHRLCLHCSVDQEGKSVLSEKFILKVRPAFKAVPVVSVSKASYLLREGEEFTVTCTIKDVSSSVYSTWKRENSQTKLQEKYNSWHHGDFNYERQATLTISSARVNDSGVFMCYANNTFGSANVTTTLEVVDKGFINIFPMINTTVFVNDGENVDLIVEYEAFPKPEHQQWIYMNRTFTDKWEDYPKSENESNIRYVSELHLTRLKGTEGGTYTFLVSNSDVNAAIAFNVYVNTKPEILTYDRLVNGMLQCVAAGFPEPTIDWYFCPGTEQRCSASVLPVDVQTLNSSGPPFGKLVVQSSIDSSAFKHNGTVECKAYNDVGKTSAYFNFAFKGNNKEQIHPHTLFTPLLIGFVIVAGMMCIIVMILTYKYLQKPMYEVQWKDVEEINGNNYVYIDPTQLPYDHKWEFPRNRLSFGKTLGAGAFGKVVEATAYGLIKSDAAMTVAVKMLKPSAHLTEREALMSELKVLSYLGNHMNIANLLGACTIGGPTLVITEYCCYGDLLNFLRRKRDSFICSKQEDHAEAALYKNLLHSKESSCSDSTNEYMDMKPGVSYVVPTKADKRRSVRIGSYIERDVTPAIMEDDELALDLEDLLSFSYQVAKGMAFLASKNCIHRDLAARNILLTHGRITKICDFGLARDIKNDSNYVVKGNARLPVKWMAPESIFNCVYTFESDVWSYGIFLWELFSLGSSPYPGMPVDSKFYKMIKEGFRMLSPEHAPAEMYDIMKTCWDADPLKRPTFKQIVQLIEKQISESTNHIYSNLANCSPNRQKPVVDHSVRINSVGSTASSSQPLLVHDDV

[10] = test system: Mast/stem cell growth factor receptor Kit (Homo sapiens), P10721 [A829P]; assay: as §1; conditions: at 10 µM
Mast/stem cell growth factor receptor Kit (Homo sapiens), P10721 [A829P], sequence (P10721 whole entry A829P): as the sequence (P10721 whole entry V559D/V654A) above, with D559V, A654V, A829P counted along it

[11] = target: Mast/stem cell growth factor receptor Kit (Homo sapiens, UniProt P10721); assay: as §1; conditions: at 10 µM
Mast/stem cell growth factor receptor Kit, sequence (P10721 whole entry): as the sequence (P10721 whole entry V559D/V654A) above, with D559V, A654V counted along it

[12] = test system: Mast/stem cell growth factor receptor Kit (Homo sapiens), P10721 [L576P]; assay: as §1; conditions: at 10 µM
Mast/stem cell growth factor receptor Kit (Homo sapiens), P10721 [L576P], sequence (P10721 whole entry L576P): as the sequence (P10721 whole entry V559D/V654A) above, with D559V, L576P, A654V counted along it

[13] = test system: Mast/stem cell growth factor receptor Kit (Homo sapiens), P10721 [D816V]; assay: as §1; conditions: at 10 µM
Mast/stem cell growth factor receptor Kit (Homo sapiens), P10721 [D816V], sequence (P10721 whole entry D816V): as the sequence (P10721 whole entry V559D/V654A) above, with D559V, A654V, D816V counted along it

[14] = target: ALK tyrosine kinase receptor (Homo sapiens, UniProt Q9UM73); assay: Selectivity interaction (KinomeScan (DiscoverX)) EUB0001619a ALK; conditions: at 1 µM
ALK tyrosine kinase receptor, sequence (Q9UM73 19-1620 limits assumed): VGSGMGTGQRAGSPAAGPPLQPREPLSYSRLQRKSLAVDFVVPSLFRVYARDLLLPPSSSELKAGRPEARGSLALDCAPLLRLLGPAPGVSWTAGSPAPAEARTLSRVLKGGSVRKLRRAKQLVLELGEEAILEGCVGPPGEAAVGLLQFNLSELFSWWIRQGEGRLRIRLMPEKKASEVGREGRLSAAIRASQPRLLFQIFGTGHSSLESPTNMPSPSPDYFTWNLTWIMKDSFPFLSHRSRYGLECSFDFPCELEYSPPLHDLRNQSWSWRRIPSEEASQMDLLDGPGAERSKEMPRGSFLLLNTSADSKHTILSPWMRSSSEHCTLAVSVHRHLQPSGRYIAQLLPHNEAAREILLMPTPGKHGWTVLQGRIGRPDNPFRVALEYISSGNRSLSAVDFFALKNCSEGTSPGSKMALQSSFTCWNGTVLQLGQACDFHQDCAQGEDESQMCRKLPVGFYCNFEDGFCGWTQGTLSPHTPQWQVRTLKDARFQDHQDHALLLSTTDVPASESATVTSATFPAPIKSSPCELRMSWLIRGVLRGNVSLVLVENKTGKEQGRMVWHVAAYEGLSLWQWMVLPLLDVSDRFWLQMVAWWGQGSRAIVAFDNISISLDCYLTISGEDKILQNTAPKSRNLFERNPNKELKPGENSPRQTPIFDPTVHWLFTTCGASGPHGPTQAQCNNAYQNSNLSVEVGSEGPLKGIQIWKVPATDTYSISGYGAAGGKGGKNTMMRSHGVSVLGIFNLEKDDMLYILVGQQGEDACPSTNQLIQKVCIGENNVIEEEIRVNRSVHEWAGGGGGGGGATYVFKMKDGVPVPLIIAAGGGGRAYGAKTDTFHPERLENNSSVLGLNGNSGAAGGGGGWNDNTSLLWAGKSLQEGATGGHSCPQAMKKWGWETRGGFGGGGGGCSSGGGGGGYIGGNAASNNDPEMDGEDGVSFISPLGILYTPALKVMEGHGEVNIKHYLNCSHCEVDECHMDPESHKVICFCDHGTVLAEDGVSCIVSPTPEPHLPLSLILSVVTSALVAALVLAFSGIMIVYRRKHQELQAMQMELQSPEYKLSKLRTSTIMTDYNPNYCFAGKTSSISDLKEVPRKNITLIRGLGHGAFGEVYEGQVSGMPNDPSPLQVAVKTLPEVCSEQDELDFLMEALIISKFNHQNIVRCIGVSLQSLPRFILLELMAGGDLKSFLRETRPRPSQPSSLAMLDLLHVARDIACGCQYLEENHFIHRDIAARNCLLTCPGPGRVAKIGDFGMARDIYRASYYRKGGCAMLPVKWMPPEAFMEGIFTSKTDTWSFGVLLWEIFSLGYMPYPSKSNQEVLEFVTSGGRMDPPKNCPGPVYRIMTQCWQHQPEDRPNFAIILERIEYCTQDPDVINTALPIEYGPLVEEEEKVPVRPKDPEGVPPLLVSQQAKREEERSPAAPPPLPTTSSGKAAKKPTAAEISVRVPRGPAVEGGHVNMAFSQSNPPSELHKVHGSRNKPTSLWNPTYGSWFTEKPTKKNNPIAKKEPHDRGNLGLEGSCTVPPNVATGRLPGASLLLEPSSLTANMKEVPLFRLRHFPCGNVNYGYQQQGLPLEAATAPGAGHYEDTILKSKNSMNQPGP

MAP/microtubule affinity-regulating kinase 3 (Homo sapiens), sequence (P27448 whole entry, looked up): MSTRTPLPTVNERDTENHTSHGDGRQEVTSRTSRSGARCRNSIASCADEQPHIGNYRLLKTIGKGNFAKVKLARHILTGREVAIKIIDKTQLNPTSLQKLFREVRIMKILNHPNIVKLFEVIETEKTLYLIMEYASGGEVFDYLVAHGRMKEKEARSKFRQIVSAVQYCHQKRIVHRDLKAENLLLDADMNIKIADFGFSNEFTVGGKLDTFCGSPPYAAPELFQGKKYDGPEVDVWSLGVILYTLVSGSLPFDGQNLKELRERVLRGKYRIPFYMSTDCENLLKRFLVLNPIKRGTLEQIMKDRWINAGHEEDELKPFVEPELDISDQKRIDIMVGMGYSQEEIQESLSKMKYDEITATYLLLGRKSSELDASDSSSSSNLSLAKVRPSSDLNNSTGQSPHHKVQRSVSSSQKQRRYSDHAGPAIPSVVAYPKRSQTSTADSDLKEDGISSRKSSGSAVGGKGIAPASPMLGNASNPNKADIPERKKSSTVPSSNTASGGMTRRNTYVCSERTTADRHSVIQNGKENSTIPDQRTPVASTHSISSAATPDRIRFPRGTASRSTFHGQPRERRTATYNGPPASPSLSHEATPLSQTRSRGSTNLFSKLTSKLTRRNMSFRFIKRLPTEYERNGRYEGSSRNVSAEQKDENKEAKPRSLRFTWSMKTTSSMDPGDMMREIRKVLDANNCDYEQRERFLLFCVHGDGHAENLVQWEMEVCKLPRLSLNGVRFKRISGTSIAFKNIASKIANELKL

C=CC(=O)Nc1cccc(C(=O)Nc2ccc(Nc3cc(-c4[nH]c(SC)nc4C)ccn3)cc2)c1
% of control ([1]; at 1 µM): 82% | % of control ([1]; at 5 µM): 92%

CC(=O)Nc1cccc(-n2c(=O)n(C3CC3)c(=O)c3c(Nc4ccc(I)cc4F)n(C)c(=O)c(C)c32)c1
% of control [2]: 102%

Cc1cc([C@@H](C)Nc2ccccc2C(=O)O)c2nc(N3CCOCC3)cc(=O)n2c1 [AZD-6482]
% of control [3]: 99%

CC[C@@H]1[C@H](F)C(=O)N[C@@H]1COc1nccc2cc(C(N)=O)c(OC)cc12 [ZIMLOVISERTIB]
% of inhibition [4]: -0.467%

CNC(=O)Nc1ccc(-c2nc(N3CC4CCC(C3)O4)c3cnn(C4CCC5(CC4)OCCO5)c3n2)cc1
% of control [5]: 95% | % of inhibition [6]: 1%

COc1cc(Nc2nc(C)cc(-c3cnn4nc(OC)ccc34)n2)cc(C(F)(F)F)c1
% of control [7]: 77%

C=CC(=O)Nc1cc(-n2c(=O)ccc3cnc4ccc(-c5ccc(NS(C)(=O)=O)cc5)cc4c32)ccc1C
% of control ([8]; at 1 µM): 100% | % of control ([8]; at 10 µM): 62%

O[C@H]1CC[C@H](Nc2ncc3nc(Nc4c(F)cc(F)cc4F)n([C@H]4CCOC4)c3n2)CC1
% of control [9]: 68% | % of control [10]: 77% | % of control [11]: 96% | % of control [12]: 95% | % of control [13]: 84%

N#Cc1cccc(-c2c[nH]c3ncnc(N4CCOCC4)c23)c1
% of control [14]: 100%
